Results as given in ChEMBL document CHEMBL4229379, “Synthesis and structure-activity relationship of novel bisindole amidines active against MDR Gram-positive and Gram-negative bacteria” (Eur J Med Chem, 2018).
In brackets after ≈: the same amount, converted by molar mass.

How the values were obtained:
[1] = tested on: Staphylococcus aureus; experiment: Antibacterial activity against methicillin-resistant Staphylococcus aureus ATCC 33591 infected in ICR mouse assessed as mouse survival administered intravenously at 1 and 5 hrs post infection and measured on day 7 day post last dose (reference value: 0%); format: functional; details: ATCC 33591, iv
[2] = tested on: Enterococcus faecalis; experiment: Antibacterial activity against vancomycin-resistant Enterococcus faecalis 09-9 after 18 hrs by CLSI broth microdilution method; format: functional; details: 09-9, 18 h
[3] = tested on: Pseudomonas aeruginosa; experiment: Antibacterial activity against Pseudomonas aeruginosa 12-16 after 18 hrs by CLSI broth microdilution method; format: functional; details: 12-16, 18 h
[4] = Cytotoxicity against HEK293T cells assessed as reduction in cell viability after 48 hrs by MTS assay; format: cell-based, HEK-293T; details: human
[5] = tested on: Staphylococcus aureus; experiment: Antibacterial activity against methicillin-sensitive Staphylococcus aureus 12-28 after 18 hrs by CLSI broth microdilution method; format: functional; details: 12-28, 18 h
[6] = tested on: Enterobacter cloacae; experiment: Antibacterial activity against new delhi metallo-beta-lactamase-1 harboring Enterobacter cloacae 13-1 after 18 hrs by CLSI broth microdilution method; format: functional; details: 13-1, 18 h
[7] = tested on: Staphylococcus aureus; experiment: Antibacterial activity against methicillin-resistant Staphylococcus aureus ATCC 33591 infected in ICR mouse assessed as mouse survival at 4 mg/kg, iv administered at 1 and 5 hrs post infection and measured on day 7 day post last dose (reference value: 0%); format: functional; details: ATCC 33591, iv
[8] = tested on: Providencia rettgeri; experiment: Antibacterial activity against Providencia rettgeri ATCC 31052 after 18 hrs by CLSI broth microdilution method; format: functional; details: ATCC 31052, 18 h
[9] = tested on: Escherichia coli; experiment: Antibacterial activity against extended-spectrum beta-lactamase deficient Escherichia coli 1515 after 18 hrs by CLSI broth microdilution method; format: functional; details: Escherichia coli, 1515, 18 h
[10] = tested on: Staphylococcus epidermidis; experiment: Antibacterial activity against methicillin-resistant Staphylococcus epidermidis 12-8 after 18 hrs by CLSI broth microdilution method; format: functional; details: 12-8, 18 h
[11] = tested on: Escherichia coli; experiment: Antibacterial activity against extended-spectrum beta-lactamase harboring Escherichia coli CDC1001728 after 18 hrs by CLSI broth microdilution method; format: functional; details: CDC1001728, 18 h
[12] = tested on: Klebsiella aerogenes; experiment: Antibacterial activity against Enterobacter aerogenes ATCC 13048 after 18 hrs by CLSI broth microdilution method; format: functional; details: ATCC 13048, 18 h
[13] = tested on: Acinetobacter calcoaceticus; experiment: Antibacterial activity against carbapenem-resistant Acinetobacter calcoaceticus 12-6 after 18 hrs by CLSI broth microdilution method; format: functional; details: 12-6, 18 h
[14] = tested on: Klebsiella pneumoniae; experiment: Antibacterial activity against new delhi metallo-beta-lactamase-1 harboring Klebsiella pneumoniae 13-1 after 18 hrs by CLSI broth microdilution method; format: functional; details: 13-1, 18 h
[15] = tested on: Klebsiella pneumoniae; experiment: Antibacterial activity against carbapenem-resistant Klebsiella pneumoniae 12-11 after 18 hrs by CLSI broth microdilution method; format: functional; details: 12-11, 18 h

## CN(C)C(=N)c1ccc2cc(-c3ccc(-c4cc5ccc(C(=N)N(C)C)cc5[nH]4)cc3)[nH]c2c1
[1]
  ED50: 2.62 mg/kg
  ED95: 4.62 mg/kg
[2]
  MIC: 1 µg/mL (≈ 2.23 µM)
[3]
  MIC: 64 µg/mL (≈ 143 µM)
[4]
  CC50 at 48 h: 4.13 µg/mL (≈ 9.21 µM)
[5]
  MIC: 0.25 µg/mL (≈ 0.557 µM)
[6]
  MIC: 4 µg/mL (≈ 8.92 µM)
[7]
  survival at 4 mg/kg: 90%
[8]
  MIC: 2 µg/mL (≈ 4.46 µM)
[9]
  MIC: 1 µg/mL (≈ 2.23 µM)
[10]
  MIC: 0.25 µg/mL (≈ 0.557 µM)
[11]
  MIC: 2 µg/mL (≈ 4.46 µM)
[12]
  MIC: 2 µg/mL (≈ 4.46 µM)
[13]
  MIC: 8 µg/mL (≈ 17.8 µM)
[14]
  MIC: 4 µg/mL (≈ 8.92 µM)
[15]
  MIC: 8 µg/mL (≈ 17.8 µM)
